Measurements: patent US20220089589A1, “SMALL MOLECULE DEGRADERS OF FKBP12 VIA RECRUITMENT OF VON HIPPEL-LINDAU E3 UBIQUITIN LIGASE (VHL) E3 UBIQUITIN LIGASE, AND USES IN dTAG SYSTEMS” (DANA-FARBER CANCER INSTITUTE, INC., priority 2019, published 2022)
“Also recorded” adds a separate entry of the source.

Key:
Type in all cases: cell-based
LACZ-FKBP12^F36V = assay: Immunoblotting of PATU-8902 LACZ-FKBP12^F36V clone (Example 6); details: 50 or 500 nM, 4 hrs
Protocol: (§1) PATU-8902 LACZ-FKBP12^F36V clone was plated in 6-well format, allowed to adhere overnight, and treated with 50 nM and 500 nM dTAG molecules for 4 hrs. Following treatment, cells were lysed in RIPA buffer on ice for 60 minutes. Lysates were clarified by centrifugation at 20,000×g for 10 minutes at 4° C. Immunoblotting was performed to determine changes in protein levels with an Odyssey CLx Imager. The indicated antibodies were employed including HA (hemagglutinin) to monitor LACZ-FKBP12^F36V degradation and α-TUBULIN as a loading control.

FKBP12^F36V-KRAS^G12V [1] = assay: Immunoblotting of PATU-8902 FKBP12^F36V-KRAS^G12V; KRAS^−/− clone (Example 8), HA; details: 50 or 500 nM, 4 hrs
Protocol: as §1, with “FKBP12^F36V-KRAS^G12V; KRAS^−/−” for “LACZ-FKBP12^F36V”, “HA” for “HA (hemagglutinin)”, “FKBP12^F36V-KRAS^G12V degradation, total and phosphorylated ERK to evaluate changes in ERK signaling, total and phosphorylated AKT to evaluate changes in AKT signaling” for “LACZ-FKBP12^F36V degradation”

pERK = assay: Immunoblotting of PATU-8902 FKBP12^F36V-KRAS^G12V; KRAS^−/− clone (Example 8), ERK signaling; details: 50 or 500 nM, 4 hrs
Protocol: as §1, with “FKBP12^F36V-KRAS^G12V; KRAS^−/−” for “LACZ-FKBP12^F36V”, “HA” for “HA (hemagglutinin)”, “FKBP12^F36V-KRAS^G12V degradation, total and phosphorylated ERK to evaluate changes in ERK signaling, total and phosphorylated AKT to evaluate changes in AKT signaling” for “LACZ-FKBP12^F36V degradation”

pAKT = assay: Immunoblotting of PATU-8902 FKBP12^F36V-KRAS^G12V; KRAS^−/− clone (Example 8), AKT signaling; details: 50 or 500 nM, 4 hrs
Protocol: as §1, with “FKBP12^F36V-KRAS^G12V; KRAS^−/−” for “LACZ-FKBP12^F36V”, “HA” for “HA (hemagglutinin)”, “FKBP12^F36V-KRAS^G12V degradation, total and phosphorylated ERK to evaluate changes in ERK signaling, total and phosphorylated AKT to evaluate changes in AKT signaling” for “LACZ-FKBP12^F36V degradation”

[2] = system: PATU-8902 FKBP12^F36V-KRAS^G12V; KRAS^−/− clone; assay: Anti-proliferation via CellTiter-Glo, PATU-8902 FKBP12^F36V-KRAS^G12V; KRAS^−/− clone (Example 12); details: 0.000063-2 μM, 72 hrs
Protocol: (§2) PATU-8902 LACZ-FKBP12^F36V or FKBP12^F36V-KRAS^G12V; KRAS^−/− clones were plated in 384-well format, allowed to adhere overnight, and treated with various dTAG molecules from compound stock plates using a JANUS® Workstation pin tool for 72 hrs. To measure cell viability, Cell Tilter-Glo® was added to wells for 15 minutes at r.t. and luminescence was measured on an EnVision™ 2104 Multilabel Plate Reader.

[3] = system: PATU-8902 FKBP12^F36V-KRAS^G12V; KRAS^−/− clone; assay: Cell transformation by growth in ultra-low attachment conditions, PATU-8902 FKBP12^F36V-KRAS^G12V; KRAS^−/− clone (Example 13); details: 0.000063-2 μM, 120 hrs
Protocol: as §2, with “format in ultra-low attachment conditions,” for “format,”, “form 3D-spheroids” for “adhere”, “120” for “72”, “transformation,” for “viability,”, “room temperature” for “r.t.”

[4] = system: NIH/3T3 cells expressing FKBP12^F36V-KRAS^G12V; assay: Anti-proliferation in NIH/3T3 cells expressing FKBP12^F36V-KRAS^G12V by ATPlite assay; details: 0.00063-20 μM, 72 hrs, NIH/3T3 expressing FKBP12^F36V-KRAS^G12V
Protocol: (§3) NIH/3T3 cells, that were mock transduced (control) or stably expressing with FKBP12^F36V-KRAS^G12V, were plated in 384-well format, allowed to adhere overnight, and treated with various dTAG molecules from compound stock plates using a JANUS® Workstation pin tool for 72 hrs. To measure cell viability, ATPlite™ was added to wells for 15 minutes at room temperature and luminescence was measured on an EnVision™ 2104 Multilabel Plate Reader.

control NIH/3T3 cells = assay: Anti-proliferation in mock transduced (control) NIH/3T3 cells by ATPlite assay; details: 0.00063-20 μM, 72 hrs, at high doses
Protocol: as §3

[5] = system: PATU-8902 FKBP12^F36V-KRAS^G12V; KRAS^−/− clone; assay: Anti-proliferation via CellTiter-Glo, PATU-8902 FKBP12^F36V-KRAS^G12V; KRAS^−/− clone (Example 11); details: 0.00063-20 μM, 72 hrs
Protocol: as §2, with “CellTilter-Glo®” for “Cell Tilter-Glo®”

[6] = system: PATU-8902 LACZ-FKBP12^F36V clone; assay: Anti-proliferation via CellTiter-Glo, PATU-8902 LACZ-FKBP12^F36V control clone (Example 11); details: 0.00063-20 μM, 72 hrs
Protocol: as §2, with “CellTilter-Glo®” for “Cell Tilter-Glo®”

FKBP12^F36V-KRAS^G12V [7] = assay: Immunoblotting of 293T^WT FKBP12^F36V-KRAS^G12V cells; details: 50 or 500 nM, 24 hrs
Protocol: as §1, with “293T^WT or 293T^VHL−/− FKBP12^F36V-KRAS^G12V cells were plated” for “PATU-8902 LACZ-FKBP12^F36V clone was plated”, “for 24” for “for 4”, “HA” for “HA (hemagglutinin)”, “monitor FKBP12^F36V-KRAS^G12V” for “monitor LACZ-FKBP12^F36V”

FKBP12^F36V-KRAS^G12V [8] = assay: Immunoblotting of 293T^VHL−/− FKBP12^F36V-KRAS^G12V cells; details: 50 or 500 nM, 24 hrs
Protocol: as §1, with “293T^WT or 293T^VHL−/− FKBP12^F36V-KRAS^G12V cells were plated” for “PATU-8902 LACZ-FKBP12^F36V clone was plated”, “for 24” for “for 4”, “HA” for “HA (hemagglutinin)”, “monitor FKBP12^F36V-KRAS^G12V” for “monitor LACZ-FKBP12^F36V”

[9] = system: PATU-8902 LACZ-FKBP12^F36V clone; assay: Anti-proliferation via CellTiter-Glo, PATU-8902 LACZ-FKBP12^F36V control clone (Example 12); details: 0.000063-2 μM, 72 hrs
Protocol: as §2

[10] = system: PATU-8902 LACZ-FKBP12^F36V clone; assay: Cell transformation by growth in ultra-low attachment conditions, PATU-8902 LACZ-FKBP12^F36V control clone (Example 13); details: 0.000063-2 μM, 120 hrs
Protocol: as §2, with “format in ultra-low attachment conditions,” for “format,”, “form 3D-spheroids” for “adhere”, “120” for “72”, “transformation,” for “viability,”, “room temperature” for “r.t.”

FKBP12^F36V-GFP = assay: Immunoblotting of EWS502 FKBP12^F36V-GFP cells; details: dTAG-13 10-5000 nM, compound 1 50-5000 nM, 24 hrs
Protocol: (§4) EWS502 FKBP12^F36V-GFP and FKBP12^F36V-EWS/FLI; EWS/FLP^−/− cells were plated in 6-well format, allowed to adhere overnight, and treated with (10-5000 nM) dTAG-13 or (50-5000 nM) compound 1 for 24 hrs. Following treatment, cells were lysed in Cell Lysis Buffer (Cell Signaling Technology®) on ice for 60 minutes. Lysates were clarified by centrifugation at 20,000×g for 10 minutes at 4° C. Immunoblotting was performed to determine changes in protein levels upon incubation with the appropriate horseradish peroxidase-conjugated secondary antibodies. The indicated antibodies were employed including HA to monitor FKBP12^F36V-GFP or FKBP12^F36V-EWS/FLI degradation and Vinculin as a loading control.

FKBP12^F36V-EWS/FLI = assay: Immunoblotting of EWS502 FKBP12^F36V-EWS/FLI; EWS/FLI^−/− cells; details: dTAG-13 10-5000 nM, compound 1 50-5000 nM, 24 hrs, EWS502 cells
Protocol: as §4

Compound	degradation of LACZ-FKBP12^F36V (immunoblot) (LACZ-FKBP12^F36V)	degradation of FKBP12^F36V-KRAS^G12V (immunoblot) (FKBP12^F36V-KRAS^G12V [1])	pERK levels (immunoblot) (pERK)	pAKT levels (immunoblot) (pAKT)	anti-proliferative effects / loss of cell viability (% DMSO control) [2]	loss of cell transformation (3D-spheroids, % DMSO control) [3]	anti-proliferative effects / loss of cell viability (% DMSO control) [4]	anti-proliferative effects on control cells (control NIH/3T3 cells)	anti-proliferative effects / loss of cell viability (% DMSO control) [5]	anti-proliferative effects on LACZ-FKBP12^F36V control clone [6]	degradation of FKBP12^F36V-KRAS^G12V in 293T^WT cells (immunoblot) (FKBP12^F36V-KRAS^G12V [7])	degradation of FKBP12^F36V-KRAS^G12V in 293T^VHL−/− cells (immunoblot) (FKBP12^F36V-KRAS^G12V [8])	anti-proliferative effects on LACZ-FKBP12^F36V control clone [9]	effects on cell transformation of LACZ-FKBP12^F36V control clone [10]	degradation of FKBP12^F36V-GFP (immunoblot) (FKBP12^F36V-GFP)	degradation of FKBP12^F36V-EWS/FLI (immunoblot) (FKBP12^F36V-EWS/FLI)
CC[C@H](C(=O)N1CCCC[C@H]1C(=O)O[C@H](CCc1ccc(OC)c(OC)c1)c1ccccc1OCC(=O)NCCCCCCC(=O)N[C@H](C(=O)N1C[C@@H](O)C[C@@H]1C(=O)N[C@@H](C)c1ccc(-c2scnc2C)cc1)C(C)(C)C)c1cc(OC)c(OC)c(OC)c1 [Compound 2, (R)-3-(3,4-dimethoxyphenyl)-1-(2-(2-((7-(((S)-1-((2R,4S)-4-hydroxy-2-(((S)-1-(4-(4-methylthiazol-5-yl)phenyl)ethyl)carbamoyl)pyrrolidin-1-yl)-3,3-dimethyl-1-oxobutan-2-yl)amino)-7-oxoheptyl)amino)-2-oxoethoxy)phenyl)propyl (S)-1-((S)-2-(3,4,5-trimethoxyphenyl)butanoyl)piperidine-2-carboxylate]	Lack of degradation; also recorded: no effect	Lack of degradation; also recorded: no effect	no effect	no effect	little to no loss of viability; also recorded: little to no toxicity	little to no loss of viability; also recorded: limited toxicity at high doses										
CC[C@H](C(=O)N1CCCC[C@H]1C(=O)O[C@H](CCc1ccc(OC)c(OC)c1)c1ccccc1OCC(=O)NCCOCCOCCOCC(=O)N[C@H](C(=O)N1C[C@H](O)C[C@H]1C(=O)NCc1ccc(-c2scnc2C)cc1)C(C)(C)C)c1cc(OC)c(OC)c(OC)c1 [dTAG-12]							Effective loss of viability; also recorded: potent anti-proliferative effects	Limited anti-proliferative effects								
CC[C@H](C(=O)N1CCCC[C@H]1C(=O)O[C@H](CCc1ccc(OC)c(OC)c1)c1ccccc1OCC(=O)NCCOCCOCCOCC(=O)N[C@H](C(=O)N1C[C@H](O)C[C@H]1C(=O)N[C@@H](C)c1ccc(-c2scnc2C)cc1)C(C)(C)C)c1cc(OC)c(OC)c(OC)c1 [dTAG-63]							Effective loss of viability; also recorded: potent anti-proliferative effects	Limited anti-proliferative effects	Effective loss of viability; also recorded: potent anti-proliferative effects	limited effects						
CC[C@H](C(=O)N1CCCC[C@H]1C(=O)O[C@H](CCc1ccc(OC)c(OC)c1)c1ccccc1OCC(=O)NCCCCCCOc1cccc2c1C(=O)N(C1CCC(=O)NC1=O)C2=O)c1cc(OC)c(OC)c(OC)c1 (stereo partly drawn) [dTAG-13, reference compound]	rapid degradation; also recorded: potent degradation	potent degradation	pronounced diminished levels	pronounced diminished levels	Effective loss of viability; also recorded: potent anti-proliferative effects	Effective loss of viability; also recorded: potent loss of cell transformation	Effective loss of viability; also recorded: potent anti-proliferative effects		Effective loss of viability; also recorded: potent anti-proliferative effects	limited effects	potent degradation	Degradation of mutant KRAS was observed; also recorded: potent degradation	limited effects	limited effects	Degradation of GFP (control) is observed; also recorded: potent degradation	not
CC[C@H](C(=O)N1CCCC[C@H]1C(=O)O[C@H](CCc1ccc(OC)c(OC)c1)c1ccccc1OCC(=O)NCCCCCCOc1cccc2c1C(=O)N(C1CCC(=O)N(C)C1=O)C2=O)c1cc(OC)c(OC)c(OC)c1 (stereo partly drawn) [Compound 5]	Lack of degradation; also recorded: no effect	Lack of degradation; also recorded: no effect	no effect	no effect	little to no loss of viability; also recorded: little to no toxicity	little to no loss of viability; also recorded: limited toxicity at high doses										
